According to US4002615A, “Terpenoid compounds of substituted hydroxyalkyl-pyridines having juvenile hormone activity” (A/S Cheminova, priority 1974, dated 1977):
Values after ≈ are worked out from the molar mass of the structure shown.

Tests used:
Type in all cases: in vivo
Tenebrio molitor L = experiment: Tenebrio test (topical application to pupae, inhibition of adult characters); conditions: topical in acetone to abdomen of 0.5 to 2 hours old pupae; 27° C, 70% RH; mixtures of isomers
Experimental: (§1) The biological tests are examplified by tests on Tenebrio molitor L, Galleria mellonella L. and Culex pipiens L.
The material in question is applied topically to the abdomen of 0.5 to 2 hours old pupae of the said species, as a solution in acetone. The pupae are held at 27° C and 70% RH, ecdysis occuring 5 to 7 days later. The degree of inhibition of adult characters is referred to an arbitrary scale, where a morphologically perfect adult is given the character 0%, and a perfect second pupae 100%.

Culex pipiens L. = experiment: Culex test (mature larvae, loss of 50% of test animals); conditions: concentration producing loss of 50% of test animals, mixtures of isomers, read-out: IC-50 eclos.
Experimental: as §1
The compounds are tested on mature larvae. The concentration (IC-50 eclos.) is given in ppm.

Galleria mellonella L. = experiment: Galleria test (eggs on impregnated filter paper, prevention of eclosion); conditions: amount preventing eclosion of 50% of the eggs, mixtures of isomers
Experimental: as §1
The test is performed on eggs deposited on impregnated filter paper by the mother moth. The data given in table 2, are the amount necessary for preventing eclosion of 50% of the eggs. The amount (IC-50 eclos.) is given in mg./65 cm^2.

SMILES	ID-50 morph. (Tenebrio molitor L) [μg/pupa]	LC50 (Culex pipiens L.) [µg/mL]	IC-50 eclos. (Galleria mellonella L.) [mg/65 cm^2]
CC(C)=CCCC(C)=CCOCc1cccc(C)n1 [Compound 8, 3,7-dimethyl-2,6-octadien-1-yl-(6-methyl-2-pyridyl)methylether]	4	10 (≈ 38.6 µM)	> 10
CC(C)=CCCC(C)=CCOCc1ccncc1 [Compound 3, 3,7-dimethyl-2,6-octadien-1-yl-(4-pyridyl)methylether]	–	> 10	–
CC(C)=CCCC(C)=CCOCc1ccccn1 [Compound 1, 3,7-dimethyl-2,6-octadien-1-yl-(2-pyridyl)methylether]	–	5 (≈ 20.4 µM)	–
CC(=CCOCc1ccccn1)CCC1OC1(C)C (stereo not shown) [Compound 4, 6,7-epoxy-3,7-dimethyl-2-octen-1-yl-(2-pyridyl)methylether]	–	9 (≈ 34.4 µM)	–
CCc1ccc(COCC=C(C)CCC2OC2(C)C)nc1 (stereo not shown) [Compound 6, 6,7-epoxy-3,7-dimethyl-2-octen-1-yl-(5-ethyl-2-pyridyl)methylether]	–	0.005 (≈ 0.0173 µM)	–
